How the values were obtained:
ΔF508-CFTR [1] = target: T1, ΔF508-CFTR (Homo sapiens, UniProt P13569, DEL508-508); test: CFTR cell surface levels using HRP-tagged ΔF508-CFTR expressing CFBE cells, in the presence of a co-corrector; assay type: cell-based
T1 construct: host or cells: CFBE41o-, doxycycline-inducible
In short: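 Cells were seeded with 0.5 μg/mL doxycycline and held 68 h at 37 °C. Test compounds plus 3 μM co-corrector (final 0.1% DMSO) were then added for 20 h at 33 °C. Washed cells received HRP substrate, and luminescence was normalized between DMSO and 3 μM co-corrector controls.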

ΔF508-CFTR [2] = target: T1, ΔF508-CFTR; test: CFTR cell surface levels using HRP-tagged ΔF508-CFTR expressing CFBE cells, intrinsic corrector capacity; assay type: cell-based
In short: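 Here the cells express ΔF508-CFTR with horseradish peroxidase inserted in extracellular loop 4, so only rescued channel at the surface gives luminescent signal. Compounds act on their own, 20 h at the reduced temperature of 33 °C; values are percent activity relative to DMSO and a 3 μM corrector.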

[3] = HRP-tagged ΔF508-CFTR expressing CFBE cells, in the presence of 3 μM co-corrector
[4] = HRP-tagged ΔF508-CFTR expressing CFBE cells, intrinsic corrector capacity (no co-corrector), 33° C., 20 hours
[5] = HRP-tagged ΔF508-CFTR expressing CFBE cells, in the presence of 3 μM co-corrector, read-out: EC50
[6] = HRP-tagged ΔF508-CFTR expressing CFBE cells, intrinsic corrector capacity (no co-corrector), 33° C., 20 hours, read-out: EC50

T1 sequence (P13569 with tags, fused parts or gaps DEL508-508): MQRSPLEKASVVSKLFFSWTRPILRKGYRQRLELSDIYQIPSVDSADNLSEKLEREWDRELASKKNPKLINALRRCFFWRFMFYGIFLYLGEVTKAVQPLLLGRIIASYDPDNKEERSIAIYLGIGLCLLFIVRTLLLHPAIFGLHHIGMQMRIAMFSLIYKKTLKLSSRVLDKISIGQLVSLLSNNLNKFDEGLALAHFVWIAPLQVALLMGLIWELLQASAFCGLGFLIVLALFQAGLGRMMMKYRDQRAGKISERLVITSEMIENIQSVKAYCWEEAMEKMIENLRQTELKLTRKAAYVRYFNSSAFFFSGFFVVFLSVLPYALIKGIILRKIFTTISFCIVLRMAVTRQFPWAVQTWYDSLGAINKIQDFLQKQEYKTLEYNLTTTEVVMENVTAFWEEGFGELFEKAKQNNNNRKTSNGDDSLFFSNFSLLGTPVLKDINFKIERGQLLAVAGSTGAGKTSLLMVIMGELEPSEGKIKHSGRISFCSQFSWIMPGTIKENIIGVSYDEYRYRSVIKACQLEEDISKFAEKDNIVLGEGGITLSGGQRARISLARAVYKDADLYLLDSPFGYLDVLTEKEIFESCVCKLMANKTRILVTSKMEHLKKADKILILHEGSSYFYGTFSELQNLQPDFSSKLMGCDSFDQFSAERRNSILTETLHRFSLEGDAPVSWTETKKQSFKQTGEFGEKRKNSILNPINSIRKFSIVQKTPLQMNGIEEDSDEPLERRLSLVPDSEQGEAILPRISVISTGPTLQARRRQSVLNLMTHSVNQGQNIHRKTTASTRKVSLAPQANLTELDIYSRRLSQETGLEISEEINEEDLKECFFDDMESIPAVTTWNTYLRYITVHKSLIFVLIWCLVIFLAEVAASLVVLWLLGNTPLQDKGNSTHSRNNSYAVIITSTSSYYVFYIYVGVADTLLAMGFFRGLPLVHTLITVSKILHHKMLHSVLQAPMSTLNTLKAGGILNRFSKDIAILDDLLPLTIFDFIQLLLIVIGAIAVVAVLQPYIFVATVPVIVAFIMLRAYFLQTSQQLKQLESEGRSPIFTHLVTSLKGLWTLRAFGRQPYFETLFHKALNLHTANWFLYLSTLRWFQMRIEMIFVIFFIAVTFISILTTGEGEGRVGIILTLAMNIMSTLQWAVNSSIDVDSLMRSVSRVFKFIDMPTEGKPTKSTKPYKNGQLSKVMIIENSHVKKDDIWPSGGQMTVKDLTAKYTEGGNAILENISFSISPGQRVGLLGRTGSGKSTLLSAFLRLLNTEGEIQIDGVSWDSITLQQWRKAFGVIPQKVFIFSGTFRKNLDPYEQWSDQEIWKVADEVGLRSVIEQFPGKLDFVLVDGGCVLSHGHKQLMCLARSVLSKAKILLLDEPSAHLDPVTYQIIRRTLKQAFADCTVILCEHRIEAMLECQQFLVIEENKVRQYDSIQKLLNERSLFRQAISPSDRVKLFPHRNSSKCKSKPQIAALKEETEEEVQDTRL

Row | SMILES | EC50 (ΔF508-CFTR [1]) [nM] | % Activation (ΔF508-CFTR [1]; [3]) [%] | EC50 (ΔF508-CFTR [2]) [nM] | % Activation (ΔF508-CFTR [2]; [4]) [%] | EC50 (ΔF508-CFTR [1]; [5]) [nM] | EC50 (ΔF508-CFTR [2]; [6]) [nM]
1 | COCCN1CCN(c2cc(C(=O)O)nc3c2c(C2CCC2)nn3-c2ccccc2)CC1 [compound 571, 3-cyclobutyl-4-[4-(2-methoxyethyl)piperazin-1-yl]-1-phenyl-1H-pyrazolo[3,4-b]pyridine-6-carboxylic acid] | 328 | 334.05 | 812 | 189.6 |  | 
2 | CC(C)OC1CN(c2cc(C(=O)O)nc3c2c(C2CCC2)nn3-c2ccccc2)C1 [compound 573, 3-cyclobutyl-1-phenyl-4-{3-[(propan-2-yl)oxy]azetidin-1-yl}-1H-pyrazolo[3,4-b]pyridine-6-carboxylic acid] |  | 376 |  | 149.7 | 299 | 974
3 | O=C(O)c1cc(N2CC[C@@H](N3CCOCC3)C2)c2c(C3CCC3)nn(-c3ccccc3)c2n1 [compound 577, 3-cyclobutyl-4-[(3R)-3-(morpholin-4-yl)pyrrolidin-1-yl]-1-phenyl-1H-pyrazolo[3,4-b]pyridine-6-carboxylic acid] |  | 300.47 |  | 108 | 1150 | 3030
4 | O=C(O)c1cc(OC2CCC(F)(F)CC2)c2c(C3CCC3)nn(-c3ccccc3)c2n1 [compound 578, 3-cyclobutyl-4-[(4,4-difluorocyclohexyl)oxy]-1-phenyl-1H-pyrazolo[3,4-b]pyridine-6-carboxylic acid] |  | 301.55 |  | 118.2 | 224 | 334
5 | O=C(O)c1cc(OC2CCOCC2)c2c(C3CCC3)nn(-c3ccccc3)c2n1 [compound 579, 3-cyclobutyl-4-[(oxan-4-yl)oxy]-1-phenyl-1H-pyrazolo[3,4-b]pyridine-6-carboxylic acid] |  | 263.5 |  | 97.37 | 267 | 238
6 | CO[C@H]1CCCC[C@@H]1Oc1cc(C(=O)O)nc2c1c(C1CCC1)nn2-c1ccccc1 [compound 580, 3-cyclobutyl-4-{[(1S,2S)-2-methoxycyclohexyl]oxy}-1-phenyl-1H-pyrazolo[3,4-b]pyridine-6-carboxylic acid] |  | 288 |  | 88.82 | 312 | 333
7 | CCC1(COc2cc(C(=O)O)nc3c2c(C2CCC2)nn3-c2ccccc2)COC1 [compound 581, 3-cyclobutyl-4-[(3-ethyloxetan-3-yl)methoxy]-1-phenyl-1H-pyrazolo[3,4-b]pyridine-6-carboxylic acid] |  | 377.8 |  | 146 | 203 | 250
8 | O=C(O)c1cc(O[C@@H]2CCOC2)c2c(C3CCC3)nn(-c3ccccc3)c2n1 [compound 582, 3-cyclobutyl-4-{[(3R)-oxolan-3-yl]oxy}-1-phenyl-1H-pyrazolo[3,4-b]pyridine-6-carboxylic acid] |  | 307.5 |  | 92.03 | 614 | 903
9 | O=C(O)c1cc(O[C@H]2CCOC2)c2c(C3CCC3)nn(-c3ccccc3)c2n1 [compound 583] |  | 287.75 |  | 134.7 | 460 | 1020
10 | COCC1CCN(c2cc(C(=O)O)nc3c2c(C(C)C)nn3-c2ccnc(N3CCOCC3)n2)CC1 [compound 589] |  | 451.75 |  | 232.15 | 303 | 458
11 | O=C(O)c1cc(NCC2CCOCC2)c2c(C3CCC3)nn(-c3ccccc3)c2n1 [compound 590, 3-cyclobutyl-4-{[(oxan-4-yl)methyl]amino}-1-phenyl-1H-pyrazolo[3,4-b]pyridine-6-carboxylic acid] | 2030 | 310.45 | 2610 | 141.3 |  | 
12 | N#CC1CCN(c2ccc(-c3cc(C(=O)O)nc4c3c(OC3CCOC3)nn4-c3ccccc3)cn2)CC1 (centres unmarked) [compound 591, 4-[6-(4-cyanopiperidin-1-yl)pyridin-3-yl]-3-[(oxolan-3-yl)oxy]-1-phenyl-1H-pyrazolo[3,4-b]pyridine-6-carboxylic acid] |  | 286.4 |  | 106.3 | 450 | 926
13 | N#CC1CCN(c2ccc(-c3cc(C(=O)O)nc4c3c(OC3COC3)nn4-c3ccccc3)cn2)CC1 [compound 592, 4-[6-(4-cyanopiperidin-1-yl)pyridin-3-yl]-3-[(oxetan-3-yl)oxy]-1-phenyl-1H-pyrazolo[3,4-b]pyridine-6-carboxylic acid] |  | 279 |  | 116.6 | 584 | 1160
14 | O=C(O)c1cc(N2CCC(F)(F)CC2)c2c(C3CCC3)nn(-c3ccccc3)c2n1 [compound 594, 3-cyclobutyl-4-(4,4-difluoropiperidin-1-yl)-1-phenyl-1H-pyrazolo[3,4-b]pyridine-6-carboxylic acid] |  | 269.8 |  | 75.66 | 621 | 787
15 | COCC1(F)CCCN(c2cc(C(=O)O)nc3c2c(C2CCC2)nn3-c2ccccc2)C1 (centres unmarked) [compound 595, 3-cyclobutyl-4-[3-fluoro-3-(methoxymethyl)piperidin-1-yl]-1-phenyl-1H-pyrazolo[3,4-b]pyridine-6-carboxylic acid] |  | 383.8 |  | 162.8 | 207 | 347
16 | O=C(O)c1cc(N2CCOC(C(F)(F)F)C2)c2c(C3CCC3)nn(-c3ccccc3)c2n1 (centres unmarked) [compound 596, 3-cyclobutyl-1-phenyl-4-[2-(trifluoromethyl)morpholin-4-yl]-1H-pyrazolo[3,4-b]pyridine-6-carboxylic acid] |  | 299.4 |  | 99.54 | 522 | 735
17 | O=C(O)c1cc(OC2CN(C3CCCCC3)C2)c2c(C3CCC3)nn(-c3ccccc3)c2n1 [compound 599, 3-cyclobutyl-4-[(1-cyclohexylazetidin-3-yl)oxy]-1-phenyl-1H-pyrazolo[3,4-b]pyridine-6-carboxylic acid] |  | 248.4 |  | 81.59 | 376 | 357
18 | CC(C)c1nn(-c2cccc(N(C)C)c2)c2nc(C(=O)O)cc(OCC3CCOCC3)c12 [compound 602, 1-[3-(dimethylamino)phenyl]-4-[(oxan-4-yl)methoxy]-3-(propan-2-yl)-1H-pyrazolo[3,4-b]pyridine-6-carboxylic acid] |  | 393.4 |  | 159.3 | 134 | 256
19 | CC(C)c1nn(C2CCCCC2)c2nc(C(=O)O)cc(OCC3CCOCC3)c12 [compound 603, 1-cyclohexyl-4-[(oxan-4-yl)methoxy]-3-(propan-2-yl)-1H-pyrazolo[3,4-b]pyridine-6-carboxylic acid] |  | 273.3 |  | 92.66 | 870 | 1760
20 | CC(C)c1nn(-c2ccc(F)cc2)c2nc(C(=O)O)cc(OCCC3CCOCC3)c12 [compound 604, 1-(4-fluorophenyl)-4-[2-(oxan-4-yl)ethoxy]-3-(propan-2-yl)-1H-pyrazolo[3,4-b]pyridine-6-carboxylic acid] |  | 292.2 |  | 142.9 | 256 | 738

— US9796711B2, “Substituted pyrazolo[3,4-b]pyridin-6-carboxylic acids and method of use” (AbbVie S.àr.l., priority 2015, dated 2017)
